According to patent publication US20030195212A1, “Novel melanocortin receptor agonists and antagonists” (priority 2000, published 2003):

Legend:
[1] = molecular target: T1, MC1 receptor (Mus musculus, UniProt Q01727); test: Affinity for the MC1-receptor, displacement of I125-NDP-MSH; assay type: binding; conditions: B16 mouse melanoma cells, I125-NDP-MSH ligand; read-out: Affinity for MC-receptors Ki MC1
T1 construct: B16 mouse melanoma cells were used, which endogenously express the (mouse) MC1 receptor; endogenous in cells; host or cells: B16 mouse melanoma cells
Experimental: Test 1. Affinity for the MC1-Receptor
The binding assay was carried out essentially as described by Lunec et al Melanoma Res 1992; 2; 5-12 using I^125α-NDP-MSH as ligand.
(§1) Essentially, the affinity of the compounds to the different receptors were determined using either insect cells (Sf9) or COS cells, which were transfected with recombinant human MC3, MC4 or MC5 receptors. For the determination of the affinity to the MC1 receptor, B16 mouse melanoma cells were used, which endogenously express the (mouse) MC1 receptor.
(§2) The compounds were tested at different concentrations for their ability to displace I^125-labelled NDP-MSH from the respective receptor. Incubation was performed in 96-well plates using 50,000 cells/well (Sf9 or COS cells) up to 200,000 cells/well (mouse melanoma cells).
(§3) The test compound or standard (NDP-MSH) was added in an appropriate concentration (generally between 10^−4 M and 10^−12 M) together with labelled tracer (approx. 50,000 cpm/well) and incubation was performed for 2 hours (at room temperature for Sf 9 cells and at +37° C. for COS cells and mouse melanoma cells).
(§4) After the incubation, the cells were washed twice to get rid of excess tracer and compound, and the cells were lysed with 0.1M NaOH. The lysate was counted in a gamma-counter, binding was calculated and the affinity then determined.

[2] = molecular target: T2, human MC3 receptor (Homo sapiens, UniProt P41968); test: Affinity for the MC3-receptor, displacement of I125-NDP-MSH; assay type: binding; conditions: Sf9 or COS cells transfected with human MC3, I125-NDP-MSH ligand; for Ki: read-out: Affinity for MC-receptors Ki MC3
T2 construct: expressed in transfected cells; host or cells: Sf9 insect cells or COS cells
Experimental: (§5) Test 2. Affinity for the MC3-Receptors, the MC4-Receptors and the MC5-Receptors
(§6) The binding assays were carried out essentially as described by Szardenings et al., J. Biol. Chem. 1997; 272; 27943-27948 and Schiöth et al., FEBS Lett. 1997; 410; 223-228 using I^125-NDP-α-MSH as ligand.
as §1, §2, §3, §4

[3] = molecular target: T3, human MC4 receptor (Homo sapiens, UniProt P32245); test: Affinity for the MC4-receptor, displacement of I125-NDP-MSH; assay type: binding; conditions: Sf9 or COS cells transfected with human MC4, I125-NDP-MSH ligand; read-out: Affinity for MC-receptors Ki MC4
T3 construct: expressed in transfected cells; host or cells: Sf9 insect cells or COS cells
Experimental: as §5, §6, §1, §2, §3, §4

[4] = molecular target: T4, human MC5 receptor (Homo sapiens, UniProt P33032); test: Affinity for the MC5-receptor, displacement of I125-NDP-MSH; assay type: binding; conditions: Sf9 or COS cells transfected with human MC5, I125-NDP-MSH ligand; read-out: Affinity for MC-receptors Ki MC5
T4 construct: expressed in transfected cells; host or cells: Sf9 insect cells or COS cells
Experimental: as §5, §6, §1, §2, §3, §4

[5] = molecular target: T1, MC1 receptor; test: cAMP assay, MC1 receptor (mouse melanoma B16 cells); assay type: cell-based; conditions: 20 minutes at +37° C.
Experimental: (§7) Test 3. cAMP Assay p The stimulation of cAMP was carried out essentially as described by Schiöth et al., Br. J. Pharmacol. 1998; 124; 75-82.
(§8) Essentially, the effects of the compounds were tested […] for their ability to stimulate the production of cAMP. The cells used were the same ones that were used for the binding assays (see above), i.e. for the MC1 receptor mouse melanoma B16 cells were used and for the MC3, MC4 and MC5 receptors, Sf9 or COS cells, transfected with the respective human receptors.
(§9) Cyclic AMP was stimulated by the addition of the compounds at different concentrations in the presence of a phosphodiesterase inhibitor, during a period of 20 minutes at +37° C. cAMP was extracted with PCA, neutralised with KOH and the mixture was then centrifuged.
(§10) The concentration of cAMP was determined using a binding assay comprising binding protein (from bovine adrenals). Tritiated cAMP, used as tracer, and extracts (from above) in different dilutions were incubated at +4° C. for 120-150 minutes. The cAMP in the unknown samples displaced the labelled cAMP from binding to the binding protein. The binding protein-cAMP/tracer complex was harvested using a filter technique and the filters were counted using a beta-counter. The concentrations of cAMP in the unknown extracts were calculated using a standard curve of known concentrations.

[6] = molecular target: T3, human MC4 receptor; test: cAMP assay, MC4 receptor (transfected Sf9 or COS cells); assay type: cell-based; conditions: 20 minutes at +37° C.
Experimental: as §7, §8, §9, §10

[7] = molecular target: T4, human MC5 receptor; test: cAMP assay, MC5 receptor (transfected Sf9 or COS cells); assay type: cell-based; conditions: 20 minutes at +37° C.
Experimental: as §7, §8, §9, §10

[8] = molecular target: T2, human MC3 receptor; test: cAMP assay, MC3 receptor (transfected Sf9 or COS cells); assay type: cell-based; conditions: 20 minutes at +37° C.
Experimental: as §7, §8, §9, §10

[9] = test system: Female BALB/c mice; test: Anti-inflammatory effects: total number of white blood cells in DNFB model; assay type: in vivo, mouse; conditions: i.p., 0.05-0.75 mg/kg, blood collected 24 hours after last challenge
Experimental: Anti-Inflammatory Effects
Female BALB/c mice (weight 20-22 g) were sensitized by treatment of the shaved abdomen with 30 μl of 0.5% 2,4-dinitrofluorobenzene (DNFB). After 4 days they were challenged with 10 μl of 0.3% DNFB to the paw. The unchallenged mice paws served as a control. Twenty-four hours after the last challenge, the difference in paws weight were determined as an indicator of the inflammation (paw oedema).
Mice were treated as the control but were additionally injected i.p. with various doses (0.05, 0.15 or 0.25, 0.375, 0.5 and 0.75 mg/kg) of each compounds two hours before sensitization (day 0) and the same dose was administered repeatedly after sensitization during four consecutive days. The paw edema inhibition as described above. Groups containing at least 10 mice each were used for all experiments.
Blood analysis was carried out using the QBC® Autoread™ Plus & QBC® Accutube System (Becton Dickinson). In all cases blood samples were collected twenty-four hours after the last challenge.

[10] = test system: Sprague-Dawley, male rats; test: In vivo effects on food intake, nocturnal protocol, icv; set-up: species or system rat
From the text: (§11) In Vivo Effects on Food Intake
(§12) Compounds have been tested for their effects on food intake and body weight in rats.
(§13) In order to investigate the agonistic effect, i.e. decrease in food intake, of compounds, the nocturnal protocol was used. Sprague-Dawley, male rats were used, which were cannulated intracerebroventricularly. Stainless steel guide cannulae were placed in the lateral ventricle and fixed in the skull. Animals were acclimatized for a week before the experiments took place. After the experiments were done, the rats were killed and placement of the cannulae were checked.
(§14) Rats were cannulated as described above. They were used without prior starvation, and compounds were administered at 5 pm in a total volume of 5 μl. Doses of Compound 2:4 used were 1, 4 and 10 nmoles. Food intake was measured at 3, 15 and 24 hours after dosing, and body weight was recorded at 24 hours. For comparison, the well known MC4 receptor agonist, Melanotan II (MTII) was used, at a dose of 1 nmole.

[11] = test system: Sprague-Dawley, male rats; test: In vivo effects on body weight gain, nocturnal protocol, icv; set-up: species or system rat; conditions: icv, 1, 4 and 10 nmoles, recorded at 24 hours
From the text: as §11, §12, §13, §14

T2 sequence (P41968 whole entry): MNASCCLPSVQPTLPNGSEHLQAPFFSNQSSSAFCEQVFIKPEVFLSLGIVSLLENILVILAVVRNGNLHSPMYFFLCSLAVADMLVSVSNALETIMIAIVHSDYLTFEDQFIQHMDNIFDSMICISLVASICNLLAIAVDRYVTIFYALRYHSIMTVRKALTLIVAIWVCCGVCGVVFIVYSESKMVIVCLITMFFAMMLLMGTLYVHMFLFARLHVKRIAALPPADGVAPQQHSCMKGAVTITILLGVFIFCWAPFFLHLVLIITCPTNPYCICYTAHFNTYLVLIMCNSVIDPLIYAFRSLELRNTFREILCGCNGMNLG
T1 sequence (Q01727 whole entry): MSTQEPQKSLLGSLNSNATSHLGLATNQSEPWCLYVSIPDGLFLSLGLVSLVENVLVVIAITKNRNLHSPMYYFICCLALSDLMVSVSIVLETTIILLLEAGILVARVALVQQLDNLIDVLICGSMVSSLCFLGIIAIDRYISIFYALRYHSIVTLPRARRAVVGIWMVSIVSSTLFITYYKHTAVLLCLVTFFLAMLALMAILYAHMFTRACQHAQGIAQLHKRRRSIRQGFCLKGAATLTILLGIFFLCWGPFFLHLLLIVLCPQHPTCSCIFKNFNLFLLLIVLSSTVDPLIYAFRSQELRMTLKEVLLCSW
T4 sequence (P33032 whole entry): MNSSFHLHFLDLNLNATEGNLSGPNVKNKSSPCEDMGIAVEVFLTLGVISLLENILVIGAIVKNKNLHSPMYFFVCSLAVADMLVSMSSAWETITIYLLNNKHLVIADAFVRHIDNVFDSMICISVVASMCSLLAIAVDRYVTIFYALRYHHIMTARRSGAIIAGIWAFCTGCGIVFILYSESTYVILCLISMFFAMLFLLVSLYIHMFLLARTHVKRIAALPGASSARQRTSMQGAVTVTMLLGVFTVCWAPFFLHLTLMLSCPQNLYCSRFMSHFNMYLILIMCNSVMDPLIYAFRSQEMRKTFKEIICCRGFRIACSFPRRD
T3 sequence (P32245 whole entry): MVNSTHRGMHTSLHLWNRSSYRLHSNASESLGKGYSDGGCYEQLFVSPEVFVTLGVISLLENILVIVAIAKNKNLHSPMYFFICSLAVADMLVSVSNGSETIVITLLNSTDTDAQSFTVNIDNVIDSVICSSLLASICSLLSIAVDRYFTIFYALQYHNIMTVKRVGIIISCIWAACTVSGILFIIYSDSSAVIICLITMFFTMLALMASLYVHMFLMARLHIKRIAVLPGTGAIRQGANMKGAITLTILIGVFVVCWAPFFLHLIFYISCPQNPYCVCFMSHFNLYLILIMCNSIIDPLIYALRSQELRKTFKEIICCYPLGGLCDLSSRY

Ki [1] [µM]	Ki [2] [µM]	Ki [3] [µM]	Ki [4] [µM]	Influence on cAMP MC1c [5]	Influence on cAMP MC4c [6]	Influence on cAMP MC5c [7]	Affinity for MC-receptors Ki MC3 [2]	Influence on cAMP MC3c [8]	SMILES	white blood cell count [9]	effects at the highest dose compared with MTII ([10]; icv, 10 nmoles versus MTII 1 nmole, food intake and body weight gain)	food intake ([10]; icv, 1, 4 and 10 nmoles, measured at 3, 15 and 24 hours after dosing)	body weight gain [11]
12.7	37.1	25.2	30.8	375 percentage of the baseline	99 percentage of the baseline	76 percentage of the baseline			NCCCNC(=O)C(Cc1c[nH]c2ccccc12)NC(=O)Cc1cccc2ccccc12 (centres unmarked) [1:6, N-(3-Amino-propyl)-3-(1H-indol-3-yl)-2-(2-naphthalen-1-yl-acetylamino)-propionamide]				
2.7		20.8	17.9	354 percentage of the baseline	61 percentage of the baseline	117 percentage of the baseline	nb		CCn1c2ccccc2c2cc(NC(=O)C(Cc3c[nH]c4ccccc34)NC(=O)CCCNC(=N)N)ccc21 (centres unmarked) [2:6, N-[1-(9-Ethyl-9H-carbazol-3-ylcarbamoyl)-2-(1H-indol-3-yl)-ethyl]-4-guanidino-butyramide]				
				162 percentage of the baseline	237 percentage of the baseline	164 percentage of the baseline		116 percentage of the baseline	CCn1c2ccccc2c2cc(NC(=O)C(Cc3c[nH]c4ccccc34)NC(=O)CCN)ccc21 (centres unmarked) [2:14, 2-(3-Amino-propionylamino)-N-(9-ethyl-9H-carbazol-3-yl)-3-(1H-indol-3-yl)-propionamide]				
1.3	23.5	5.6	35.6						N=C(N)NCCCCN(Cc1ccccc1)C(=O)C(Cc1c[nH]c2ccccc12)NC(=O)CCCc1ccccc1 (centres unmarked) [Compound 1:15, N-[1-[Benzyl-(4-guanidino-butyl)-carbamoyl]-2-(1H-indol-3-yl)-ethyl]-4-phenyl-butyramide]	clearly dose dependent			
0.6	35.3	3.1	43.7						N=C(N)NCCCCN(Cc1ccccc1)C(=O)C(Cc1c[nH]c2ccccc12)NC(=O)Cc1ccc2ccccc2c1 (centres unmarked) [Compound 1:17, N-Benzyl-N-(4-guanidino-butyl)-3-(1H-indol-3-yl)-2-(2-naphthalen-2-yl-acetylamino)-propionamide]	clearly dose dependent			
									N=C(N)NCCCC(=O)NC(Cc1c[nH]c2ccccc12)C(=O)NCCc1c[nH]c2ccccc12 (centres unmarked) [Compound 2:4, 4-Guanidino-N-{2-(1H-indol-3-yl)-1-[2-(1H-indol-3-yl)-ethylcarbamoyl]-ethyl}-butyramide]		in the same range as that observed with MTII	the intermediate and the highest dose is significantly different from vehicle treated animals	dose dependent and significantly different from vehicle treated animals at the highest dose tested
2.6		18.1	25.1	315 percentage of the baseline	79 percentage of the baseline	154 percentage of the baseline	nb		CCn1c2ccccc2c2cc(NC(=O)C(Cc3c[nH]c4ccccc34)NC(=O)CCCN)ccc21 (centres unmarked) [Compound 2:7, 4-Amino-N-[1-(9-ethyl-9H-carbazol-3-ylcarbamoyl)-2-(1H-indol-3-yI)-ethyl]-butyramide]				
